From patent publication US11655308B2, “HM-3 fusion protein and application thereof” (TASLY BIOPHARMACEUTICALS CO., LTD., priority 2017, dated 2023)

How the values were obtained:
type-II CIA mice = test: Chronic inflammation model of type-II CIA in mice; format: in vivo, Balb/c mice; settings: for ankle width / arthritis scoring / paw circumference / weight of mice / paw weight / spleen weight: day 60; for ankle width: model G2 4.83±0.20; for arthritis scoring: model G2 11.5±1.7; for paw circumference: model G2 13.62; for weight of mice: model G2 19.5±1.6; for paw weight: model G2 219.3±20.6; for spleen weight: model G2 114.6±14.5
Experimental: Experimental method: Balb/c mice were taken and immunized for the first time. The concentration of type-II bovine collagen was 4 mg/mL. On the day of the experiment (day 0), complete Freund's adjuvant (CFA) and CII solution were mixed evenly in equal volume and emulsified. Excepting for the normal control group of Balb/c mice, mice in each group were sensitized by intracutaneous injection of 50 μL emulsifier at the end of tails. 21 days later, mice were re-immunized with the same dose of emulsifier at the end of tails, and incomplete Freund's adjuvant (IFA) served as an adjuvant at this time. Redness and swelling other arthritic symptoms appeared on toe joints of mice models approximately on the 29th day of the experiment, indicating successful modeling.
Animals in the modeling group on the 30th day of the experiment were randomly divided into:
There were 12 groups in total, and there were 8 pieces of mice in remaining each group excepting for 12 pieces in G1 (normal control group) and G2 (model group).
Measurement of mice weight: mice were weighed by an electronic balance every two days.
Measurement of sole thickness: the thickness of left, right and hind soles for each mouse was measured by a vernier caliper every two days.
Measurement of ankle joint width: the width of left and right ankle joints for each mouse was measured by vernier caliper every two days.
Arthritis index (AI) score: the severity of arthritis for each mouse was evaluated by a paw joint scoring method. 0: no redness and swelling; 1: redness and swelling of little toe joints; 2: redness and swelling of toe joints and toes; 3: redness and swelling of the portion below ankle joints; 4: redness and swelling of toe joints, toes and ankle joints. Scoring was performed once every two days until the end of the experiment.
Blood was collected from the orbit and serum was separated. After mice were killed by cervical dislocation, spleen and thymus were separated and weighed to calculate a spleen coefficient, and then the spleen and thymus were fixed in formalin stationary liquid.

Rat chondrocyte = test: Influence of TSL-4 on viability of chondrocytes (MTT); format: cell-based; set-up: key to MTT test value: absorbance at 570 nm (MTT)
Experimental: At the end of incubation according to the experimental plan, 10 μL of 5 mg/ml MTT was added to each experimental group based upon 1/10 of the cell culture volume, so that the cells were incubated with MTT in the incubator for 4 hours. Afterwards, supernatant was carefully discarded, and 200 μL of dimethyl sulfoxide (DMSO) was added for mixing well, then the absorbance was measured on a microplate reader at a test wavelength of 570 nm. Calculating formula of relative cell activity ratio (%): a mean value of the absorbance (per well) in the experimental group/the absorbance in the control group multiplies by 100%. […] The difference between each group was analyzed by Prism 7.0, and tested by one-way ANOVA. *P<0.05 means statistical difference, **P<0.01 means significant statistical difference, and […] means extremely significant statistical difference.
The concentration of TSL-4 should be selected within 0.1, 0.3, 1, 3, 9, 27 μM.
In early experiment, the TSL-4 at each concentration had no effect on cell viability, therefore, it was diluted to 0.23 μM from 29.3 μM according to a dilution ratio of 1:5 based upon the concentration (293 μM) of the primary TSL-4 solution.

[1] = G6 TSL-4 50 mg/kg SC 1 time/5 d, 3 times
[2] = G7 TSL-4 25 mg/kg SC 1 time/5 d, 3 times
[3] = G8 TSL-4 25 mg/kg SC 1 time/7 d, 2 times
[4] = G10 TSL-4 12.5 mg/kg SC 1 time/5 d, 3 times

With mIgG4-Fc-(GGGGS)3-HM-3 [TSL-4] the ankle width (type-II CIA mice; [1]) was 3.96±0.09 mm, the arthritis scoring (type-II CIA mice; [1]) was 6.5±1.1 and the paw circumference (type-II CIA mice; [1]) was 10.80±0.26 mm. For the same substance, the weight of mice (type-II CIA mice; [1]) was 20.8 ± 1.8 g, the paw weight (type-II CIA mice; [1]) was 176.2 ± 8.9 mg and the ankle width (type-II CIA mice; [2]) was 3.98±0.08 mm. It also gave an arthritis scoring (type-II CIA mice; [2]) of 6.6±1.1, a paw circumference (type-II CIA mice; [2]) of 10.87±0.14 mm and a weight of mice (type-II CIA mice; [2]) of 21.1 ± 1.6 g. The spleen weight (type-II CIA mice; [2]) was 95.1 ± 9.5 mg, the paw weight (type-II CIA mice; [2]) was 176.4 ± 9.7 mg and the ankle width (type-II CIA mice; [3]) was 4.00±0.16 mm. The arthritis scoring (type-II CIA mice; [3]) was 7.1±0.6, the paw circumference (type-II CIA mice; [3]) was 10.97±0.32 mm and the weight of mice (type-II CIA mice; [3]) was 20.8 ± 1.7 g. It also gave a spleen weight (type-II CIA mice; [3]) of 95.8 ± 11.4 mg, a paw weight (type-II CIA mice; [3]) of 177.1 ± 7.8 mg and an ankle width (type-II CIA mice; [4]) of 4.26±0.13 mm. The arthritis scoring (type-II CIA mice; [4]) was 8.6±1.8, the paw circumference (type-II CIA mice; [4]) was 11.64±0.19 mm and the weight of mice (type-II CIA mice; [4]) was 21.5 ± 1.5 g. The spleen weight (type-II CIA mice; [4]) was 97.5 ± 5.1 mg, the “therapeutic effect compared with group G3 (positive Adalimumab group)” value (type-II CIA mice; groups G4 (HM-3), G10 (TSL-4 12.5 mg/kg once for 5 days, 3 times)) was “slightly lower than that of the group G3” and the “therapeutic effect compared with group G3 (positive Adalimumab group)” value (type-II CIA mice; groups G5 (mPEG-SC-HM-3), G6, G7, G8 (TSL-4)) was “better than the group G3”. For the same substance, the MTT test value (Rat chondrocyte; 0.1 μM TSL-4, 24 h (Table 24, low-dose), 0 μM 1.23) was 1.26, the MTT test value (Rat chondrocyte; 0.23 μM TSL-4, 24 h (Table 25), 0 μM 1.68) was 1.59 and the MTT test value (Rat chondrocyte; 0.3 μM TSL-4, 24 h (Table 24, low-dose), 0 μM 1.23) was 1.2. It also gave an MTT test value (Rat chondrocyte; 1 μM TSL-4, 24 h (Table 23), 0 μM 1.43) of 1.59, an MTT test value (Rat chondrocyte; 1 μM TSL-4, 24 h (Table 24, low-dose), 0 μM 1.23) of 1.15 and an MTT test value (Rat chondrocyte; 1 μM TSL-4, 48 h (Table 23), 0 μM 1.70) of 1.43. For the same substance, the MTT test value (Rat chondrocyte; 1 μM TSL-4, 72 h (Table 23), 0 μM 1.51) was 1.61, the MTT test value (Rat chondrocyte; 1.17 μM TSL-4, 24 h (Table 25), 0 μM 1.68) was 1.4 and the MTT test value (Rat chondrocyte; 3 μM TSL-4, 24 h (Table 23), 0 μM 1.43) was 1.67. For the same substance, the MTT test value (Rat chondrocyte; 3 μM TSL-4, 24 h (Table 24, low-dose), 0 μM 1.23) was 1.08, the MTT test value (Rat chondrocyte; 3 μM TSL-4, 48 h (Table 23), 0 μM 1.70) was 1.43 and the MTT test value (Rat chondrocyte; 3 μM TSL-4, 72 h (Table 23), 0 μM 1.51) was 1.52. It also gave an MTT test value (Rat chondrocyte; 5.86 μM TSL-4, 24 h (Table 25), 0 μM 1.68) of 1.39, an MTT test value (Rat chondrocyte; 9 μM TSL-4, 24 h (Table 23), 0 μM 1.43) of 1.72 and an MTT test value (Rat chondrocyte; 9 μM TSL-4, 48 h (Table 23), 0 μM 1.70) of 1.51. For the same substance, the MTT test value (Rat chondrocyte; 9 μM TSL-4, 72 h (Table 23), 0 μM 1.51) was 1.57, the MTT test value (Rat chondrocyte; 27 μM TSL-4, 24 h (Table 23), 0 μM 1.43) was 1.45 and the MTT test value (Rat chondrocyte; 27 μM TSL-4, 48 h (Table 23), 0 μM 1.70) was 1.30. For the same substance, the MTT test value (Rat chondrocyte; 27 μM TSL-4, 72 h (Table 23), 0 μM 1.51) was 1.31, the MTT test value (Rat chondrocyte; 29.3 μM TSL-4, 24 h (Table 25), 0 μM 1.68) was 1.24 and the “influence on cell viability” value (Rat chondrocyte; 0.1-3 μM TSL-4, 24 h) was “no significant difference”. The “influence on cell viability” value (Rat chondrocyte; 0.23-29.3 μM TSL-4, 24 h) was “no significant change in cell viability” and the “influence on cell viability” value (Rat chondrocyte; 1-27 μM TSL-4, 24, 48 and 72 hours) was “no significant influence on cell viability”.
